Measurements: patent US5460806A, “Bis(2-mercaptoethyl) sulfone” (President and Fellows of Harvard College, priority 1993, dated 1995)
“Also recorded” adds a separate entry of the source.

Columns and labels:
[1] = cited from earlier work; for reducing strength: reduction of a disulfide bond
[2] = pKa of the dithiol; assay type: physicochemical
Description: (§1) The following is taken from Lamoureux and Whitesides, 58 J. Org. Chem. 633, 1993, hereby incorporated by reference herein. The general methodology and equations used for analysis are presented there, and are not repeated here.

[3] = thiol/disulfide equilibrium (reduction strength) relative to oxidized mercaptoethanol
Description: In addition to a fast rate of reduction, a useful dithiol should be strongly reducing in order to reduce disulfides quantitatively and to maintain thiols in the reduced state without the inconvenience of mixed disulfides. […] We have used this equilibrium to evaluate several dithiols in terms of their reduction strength.
as §1

[4] = stability of aqueous solution of the dithiol; assay type: physicochemical; settings: over several days, protected from atmospheric oxygen

Row | pKa [2] | signs of decomposition of aqueous solution [4] | Compound | rate of reduction (in words), pH=7 ([1]; pH=7, background statement) | reducing strength ([1]; background statement) | rate of reduction (in words) ([1]; background statement, pH not given) | equilibrium constant relative to oxidized mercaptoethanol [3]
1 |  |  | O[C@H](CS)[C@H](O)CS (racemic) [DTT, Dithiothreitol] | kinetically slow | strong reductant; also recorded: one of the most strongly reducing dithiols |  | 
2 |  |  | OCCS [Mercaptoethanol] |  | weak | slow | 
3 | ~7.9 | no signs of decomposition | O=S(=O)(CCS)CCS [bis(2-mercaptoethyl) sulfone, Bis(2-mercaptoethyl) sulfone] |  |  |  | about 63
